Test results as given in PubChem BioAssay AID2060620 (Molecular Pharmacology Branch, DTP, NCI, 2025).

System: 328373-195-R-J1-PDC complex spheroids, viability % test/control
Assay: Anticancer human tumor 328373-195-R-J1-PDC patient-derived head and neck squamous carcinoma cell line growth inhibition [CLK]
Details: for IC50: curve of first compound; for viability, T/C: stronger effect = lower value
Method in brief: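 Patient-derived tumor cells grown as complex spheroids with HUVEC endothelial cells and mesenchymal stem cells, treated with drug combinations. Concentrations descend in half-log steps from near clinical Cmax, or from 10 microM if Cmax unknown.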

[1] = second compound 0.0316 µM, first compound 0.0316 µM
[2] = second compound 0.0316 µM, first compound 0.1 µM
[3] = second compound 0.0316 µM, first compound 0.316 µM
[4] = second compound 0.0316 µM, first compound 1 µM
[5] = second compound 0.0316 µM, first compound 3.16 µM
[6] = second compound 0.0316 µM, first compound 10 µM
[7] = second compound 0.1 µM, first compound 0.0316 µM
[8] = second compound 0.1 µM, first compound 0.1 µM
[9] = second compound 0.1 µM, first compound 0.316 µM
[10] = second compound 0.1 µM, first compound 1 µM
[11] = second compound 0.1 µM, first compound 3.16 µM
[12] = second compound 0.1 µM, first compound 10 µM
[13] = second compound 0.316 µM, first compound 0.0316 µM
[14] = second compound 0.316 µM, first compound 0.1 µM
[15] = second compound 0.316 µM, first compound 0.316 µM
[16] = second compound 0.316 µM, first compound 1 µM
[17] = second compound 0.316 µM, first compound 3.16 µM
[18] = second compound 0.316 µM, first compound 10 µM
[19] = second compound 1 µM, first compound 0.0316 µM
[20] = second compound 1 µM, first compound 0.1 µM
[21] = second compound 1 µM, first compound 0.316 µM
[22] = second compound 1 µM, first compound 1 µM
[23] = second compound 1 µM, first compound 3.16 µM
[24] = second compound 1 µM, first compound 10 µM
[25] = second compound 3.16 µM, first compound 0.0316 µM
[26] = second compound 3.16 µM, first compound 0.1 µM
[27] = second compound 3.16 µM, first compound 0.316 µM
[28] = second compound 3.16 µM, first compound 1 µM
[29] = second compound 3.16 µM, first compound 3.16 µM
[30] = second compound 3.16 µM, first compound 10 µM
[31] = second compound 10 µM, first compound 0.0316 µM
[32] = second compound 10 µM, first compound 0.1 µM
[33] = second compound 10 µM, first compound 0.316 µM
[34] = second compound 10 µM, first compound 1 µM
[35] = second compound 10 µM, first compound 3.16 µM
[36] = second compound 10 µM, first compound 10 µM
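Also: spheroids exposed to the agents for 7 days.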

For `COc1ccc([C@@H](O)c2cc(-c3ncnc4cc(N5CCOCC5)ccc34)c(F)cc2Cl)nn1` + CNC(=O)c1ccc(Nc2nc(OC3CCCC3)c3c(-c4ccc5nc(C)oc5c4)c[nH]c3n2)c(OC)c1, the IC50 (second compound 0.0316 µM) was 3760 nM, the IC50 (second compound 0.1 µM) was < 31.6 nM and the IC50 (second compound 0.316 µM) was < 31.6 nM. The IC50 (second compound 1 µM) was < 31.6 nM, the IC50 (second compound 3.16 µM) was < 31.6 nM and the IC50 (second compound 10 µM) was < 31.6 nM. The viability, T/C [1] was 51.2%, the viability, T/C [2] was 56.5% and the viability, T/C [3] was 43.4%. The viability, T/C [4] was 58.7%, the viability, T/C [5] was 55.4% and the viability, T/C [6] was 33.3%. It also gave a viability, T/C [7] of 10.5%, a viability, T/C [8] of 8.48% and a viability, T/C [9] of 12.4%. The viability, T/C [10] was 10%, the viability, T/C [11] was 9.78% and the viability, T/C [12] was 12.6%. For the same compound, the viability, T/C [13] was 8.21%, the viability, T/C [14] was 8.88% and the viability, T/C [15] was 8.95%. The viability, T/C [16] was 7.72%, the viability, T/C [17] was 10.2% and the viability, T/C [18] was 12.2%. The viability, T/C [19] was 10.3%, the viability, T/C [20] was 8.67% and the viability, T/C [21] was 10.8%. It also gave a viability, T/C [22] of 9.89%, a viability, T/C [23] of 9.31% and a viability, T/C [24] of 12.8%. For the same compound, the viability, T/C [25] was 9.71%, the viability, T/C [26] was 9.31% and the viability, T/C [27] was 9.23%. It also gave a viability, T/C [28] of 9.82%, a viability, T/C [29] of 10.5% and a viability, T/C [30] of 13.2%. For the same compound, the viability, T/C [31] was 10.6%, the viability, T/C [32] was 10.8% and the viability, T/C [33] was 8.9%. For the same compound, the viability, T/C [34] was 13.1%, the viability, T/C [35] was 12.2% and the viability, T/C [36] was 12.5%.

`COc1cccc2c1C(=O)c1c(O)c3c(c(O)c1C2=O)CC(O)(C(=O)CO)CC3OC1CC(N)C(O)C(C)O1` (centres undefined) + CNC(=O)c1ccc(Nc2nc(OC3CCCC3)c3c(-c4ccc5nc(C)oc5c4)c[nH]c3n2)c(OC)c1 was tested, and the IC50 (second compound 0.0316 µM) was < 31.6 nM, the IC50 (second compound 0.1 µM) was < 31.6 nM and the IC50 (second compound 0.316 µM) was < 31.6 nM. The IC50 (second compound 1 µM) was < 31.6 nM, the IC50 (second compound 3.16 µM) was < 31.6 nM and the IC50 (second compound 10 µM) was < 31.6 nM. For the same compound, the viability, T/C [1] was 12.6%, the viability, T/C [2] was 4.2% and the viability, T/C [3] was 0.6%. The viability, T/C [4] was 0.17%, the viability, T/C [5] was 0.12% and the viability, T/C [6] was 3.04%. The viability, T/C [7] was 8.2%, the viability, T/C [8] was 3.67% and the viability, T/C [9] was 0.55%. For the same compound, the viability, T/C [10] was 0.13%, the viability, T/C [11] was 0.09% and the viability, T/C [12] was 4.34%. For the same compound, the viability, T/C [13] was 8.9%, the viability, T/C [14] was 3.98% and the viability, T/C [15] was 0.5%. The viability, T/C [16] was 0.07%, the viability, T/C [17] was 0.07% and the viability, T/C [18] was 1.96%. The viability, T/C [19] was 8.51%, the viability, T/C [20] was 2.74% and the viability, T/C [21] was 1.07%. The viability, T/C [22] was 0.06%, the viability, T/C [23] was 0.07% and the viability, T/C [24] was 4.59%. For the same compound, the viability, T/C [25] was 11.5%, the viability, T/C [26] was 3.82% and the viability, T/C [27] was 0.22%. It also gave a viability, T/C [28] of 0.06%, a viability, T/C [29] of 0.93% and a viability, T/C [30] of 2.69%. The viability, T/C [31] was 12.1%, the viability, T/C [32] was 1.9% and the viability, T/C [33] was 0.16%. The viability, T/C [34] was 0.1%, the viability, T/C [35] was 0.6% and the viability, T/C [36] was 2.6%.
